Experiment: Analysis of solubility of L-tryptophan depending on pH of solution
Format: physicochemical
Settings: distilled water/ammonia water mixtures, 30° C., stirring 12 hours or more, supernatant by HPLC; pH of the solution 10 or more (FIG. 2)
Procedure: Measurement of solubility of L-tryptophan amino acids was performed in a 1 L jacket reactor made of glass. After mixing distilled water and ammonia water in the 1 L jacket reactor at various ratios, an excess of L-tryptophan crystals was added and they were stirred, thereby preparing a reaction solution comprising L-tryptophan crystals. After that, while maintaining the internal temperature of the reactor at 30° C. constantly using freezing/heating circulation apparatus (model F35, Julabo, Germany), these conditions were applied with stirring for 12 hours or more. Then, when the stirring was stopped and all L-tryptophan crystals were sunk, a part of clear supernatant was transferred to a syringe sampler equipped with a 0.45 μm syringe filter. At this time, the pH of the corresponding solution was measured suing a pH measuring instrument (model S220, Mettler Toledo, US). The concentration of the corresponding sample was measured using HPLC, after diluting with tertiary distilled water using a volumetric flask. The concentration of the supernatant sample was assumed with the solubility, and the change in solubility of L-tryptophan depending on pH of solution was shown in FIG. 2. In other words, the pH of the solution could be confirmed that the solubility of L-tryptophan increased from the time when the pH of the solution was to be 10 or more.

In the case of `N[C@@H](Cc1c[nH]c2ccccc12)C(=O)O` [L-tryptophan], the “change in solubility of L-tryptophan depending on pH of solution” value is reported as “increased”.

— patent US20240239753A1, “METHOD FOR CRYSTALLIZATION OF AROMATIC AMINO ACIDS, ENABLING SUSTAINABLE CYCLE OF AMMONIA” (CJ CheilJedang Corporation, priority 2021, published 2024)
